Results taken from PMC9106635, “Stimulation of the atypical chemokine receptor 3 (ACKR3) by a small-molecule agonist attenuates fibrosis in a preclinical liver but not lung injury model” (Cellular and Molecular Life Sciences: CMLS, 2022).

Key:
[1] = test system: mouse CXCL12 plasma levels; test: Mouse CXCL12 plasma determination (Bio-Plex); format: in vivo
Method: CXCL12 plasma levels were determined using Bio-Plex Pro Mouse Chemokine SDF-1a/CXCL12 (Bio-Rad) according to the manufacturer’s protocol. Prior to the assay mouse plasma samples were centrifuged for 15 min at 1000×g at 4 °C to remove any particulates. A four-fold dilution series of mouse CXCL12, blank samples and 1:5 diluted plasma samples were prepared. A 1:1 mixture of magnetic beads (50 µL/well) and sample (50 µL/well) was added to the 96-well assay plate, which was then sealed and incubated (30 min at RT) on a plate shaker at 850 rpm protected from light. After washing three times with wash buffer 25 µL/well detection antibody was added and the plate was again incubated as described above. The plate was again washed three times (100 µL/well wash buffer) followed by the addition of streptavidin-PE (50 µL/well). The plate was sealed and incubated (10 min at RT) at 850 rpm protected from light. Finally, the plate was again washed three times and the magnetic beads were resuspended in fresh assay buffer (152 µL/well). The plate was sealed and shaken for an additional 30 s before being analyzed with the Bioplex 200 System. Data were analyzed with the Bio-Plex Manager Software.

[2] = test system: fibrosis-associated genes (lung mRNA); test: qRT-PCR of fibrosis-associated genes in lung tissue; format: in vivo, mouse
Method: Total RNA was prepared from snap-frozen liver tissue (the lateral and medial right lobes and the caudate lobe; Supplementary Figure S1a) or lung tissue (cranial right lobe; Supplementary Figure S1b) after homogenization on ice in TRIZol. For quantitative qRT-PCR, cDNA was made from 0.5 μg of RNA using the GoScript reverse transcription system (Promega) according to the manufacturer’s protocol. QRT-PCR was performed (for 40 cycles) with the Quantstudio3 Applied Biosystems (ABI) system using Sybr green (ABI) followed by melting curve analysis. Expression was calculated using the delta threshold cycle (ΔCT) method with Gapdh as reference gene (previously validated as stable house-keeping gene in the CCl4 model and in the bleomycin model, current study, not shown). Forward (F) and reverse (R) primer sequences were (5’-3’): Gapdh: F: ccgcatcttcttgtgcagt, R: […]; Col1a1: F: […], R: […]; Ackr3: F: […], R: […]; Cxcr4: F: […], R: […]; Golm1: F: […], R: […]; Lgals3: F: […], R: […]; Unc93b1: F: […], R: […]; Slc15a3: F: […], R: […]; Sec24d: F: […], R: […]; Cxcl10: F: […], R: […]; and Clec4n: F: […], R: […]. Data are expressed as mean ± sem. […] The scaled counts were base log2-transformed and data were expressed as fold-change versus the reference condition (CCl4 + 23% HPBCD). […]

[3] = test system: isoproterenol-induced cardiac fibrosis in mice; parameters: method as in PMID 29627981; conditions: isoproterenol-induced cardiac injury; cited from earlier work

CCc1ccn2ccnc2c1N1CCCN(C(CC(N)=O)C2CCN(C(=O)C3CC4CCC3O4)CC2)CC1 (stereo not drawn) [compound 18a]
increase of plasma CXCL12-levels ([1]; liver fibrosis model, day 7, 15 mg/kg/dose SC BID): ~ threefold | plasma CXCL12 levels ([1]; liver fibrosis model, day 28, 15 mg/kg/dose SC BID): led to increased CXCL12 levels | plasma CXCL12 levels ([1]; lung fibrosis model, day 21, 15 mg/kg/dose SC BID, vs vehicle (23% HPBCD)): increased mouse CXCL12 plasma levels | Lgals3 expression in lung tissue ([2]; bleomycin model, day 21, qRT-PCR): similarly lowered | number of these 8 genes similarly affected in lung ([2]; bleomycin-exposed lungs, day 21): 1 | cardiac fibrosis [3]: protect mice from cardiac fibrosis
